Data as given in US10100046B2, “Inhibitors of lysine specific demethylase-1” (Celgene Quanticel Research, Inc., priority 2014, dated 2018).

Key:
THP-1 (AML) cells = experiment: LSD1 CD11b Cellular Assay (flow cytometry); format: cell-based; settings: Homo sapiens, 96 h; CD11b expression in THP-1 cells, 4 days
Protocol: To analyze LSD1 inhibitor efficacy in cells, a CD11b flow cytometry assay was performed. LSD1 inhibition induces CD11b expression in THP-1 (AML) cells which can be measured by flow cytometry. […] LSD1 test compounds were serially diluted in DMSO. The dilutions were added to each well accordingly to a final concentration of 0.2% DMSO. The cells were incubated at 37 degrees Celsius in 5% CO2 for 4 days. 250 μL of each well was transferred to a well in a 96 well round bottom plate. The plate was centrifuged at 1200 rpm at 4 degrees Celsius in a Beckman Coulter Alegra 6KR centrifuge for 5 minutes. The media was removed leaving the cells at the bottom of the wells. The cells were washed in 100 μL cold HBSS (Hank's Balanced Salt Solution) plus 2% BSA (Bovine Serum Albumin) solution and centrifuged at 1200 rpm at 4 degrees Celsius for 5 minutes. The wash was removed. […] The cells were centrifuged and washed two times in 100 μl HBSS plus 2% BSA. After the final spin the cells were resuspended in 100 μL HBSS plus 2% BSA containing 1 ug/mL DAPI (4′,6-diamidino-2-phenylindole). The cells were then analyzed by flow cytometry in a BD FACSAria machine. Cells were analyzed for CD11b expression. The percent of CD11b expressing cells for each inhibitor concentration was used to determine an IC50 curve for each compound analyzed.

full-length human LSD1 = full-length human LSD1 (Homo sapiens (Human), UniProt O60341); experiment: In Vitro Enzyme Inhibition Assay—LSD-1 (TR-FRET); format: biochemical; settings: H3K4me1-biotin labeled peptide
Protocol: This assay determines the ability of a test compound to inhibit LSD1 demethylase activity. E. coli expressed full-length human LSD1 (Accession number 060341) was purchased from Active Motif (Cat#31334).
The enzymatic assay of LSD1 activity is based on Time Resolved-Fluorescence Resonance Energy Transfer (TR-FRET) detection. The inhibitory properties of compounds to LSD1 were determined in 384-well plate format under the following reaction conditions: 0.1-0.5 nM LSD1, 50 nM H3K4me1-biotin labeled peptide (Anaspec cat #64355), 2 μM FAD in assay buffer of 50 mM HEPES, pH7.3, 10 mM NaCl, 0.005% Brij35, 0.5 mM TCEP, 0.2 mg/ml BSA. Reaction product was determined quantitatively by TR-FRET after the addition of detection reagent Phycolink Streptavidin-allophycocyanin (Prozyme) and Europium-anti-unmodified histone H3 lysine 4 (H3K4) antibody (PerkinElmer) in the presence of LSD1 inhibitor such as 1.8 mM of Tranylcypromine hydrochloride (2-PCPA) in LANCE detection buffer (PerkinElmer) to final concentration of 12.5 nM and 0.25 nM respectively.
The assay reaction was performed according to the following procedure: 2 μL of the mixture of 150 nM H3K4me1-biotin labeled peptide with 2 μL of 11-point serial diluted test compound in 3% DMSO were added to each well of plate, followed by the addition of 2 μL of 0.3 nM LSD1 and 6 μM of FAD to initiate the reaction. The reaction mixture was then incubated at room temperature for one hour, and terminated by the addition of 6 μL of 1.8 mM 2-PCPA in LANCE detection buffer containing 25 nM Phycolink Streptavidin-allophycocyanin and 0.5 nM Europium-anti-unmodified H3K4 antibody. Enzymatic reaction is terminated within 15 minutes if 0.5 LSD1 enzyme is used in the plate. Plates were read by EnVision Multilabel Reader in TR-FRET mode (excitation at 320 nm, emission at 615 nm and 665 nm) after 1 hour incubation at room temperature. A ratio was calculated (665/615) for each well and fitted to determine inhibition constant (IC50).
The ability of the compounds disclosed herein to inhibit LSD1 activity was quantified and the respective IC50 value was determined. Table 3 provides the IC50 values of various substituted heterocyclic compounds disclosed herein.

| IC50 (THP-1 (AML) cells) [nM] | IC50 (full-length human LSD1) [nM] | SMILES |
| --- | --- | --- |
| < 100 | ≤ 100 | Cn1cnc2cc(-c3sc(N4CCC(N)CC4)nc3-c3ccc(C#N)cc3)cnc21 [Example 9, 4-[2-(4-aminopiperidin-1-yl)-5-{3-methyl-3H-imidazo[4,5-b]pyridin-6-yl}-1,3-thiazol-4-yl]benzonitrile] |
| < 100 | ≤ 100 | Cn1ccc2cc(-c3sc(N4CCC(N)CC4)nc3-c3ccc(C#N)cc3)cnc21 [Example 3, 4-[2-(4-aminopiperidin-1-yl)-5-{1-methyl-1H-pyrrolo[2,3-b]pyridin-5-yl}-1,3-thiazol-4-yl]benzonitrile] |
| < 100 | ≤ 100 | Cn1cc2cc(-c3sc(N4CCC(N)CC4)nc3-c3ccc(C#N)cc3)ccc2n1 [Example 34] |
| < 100 | ≤ 100 | Cn1ncc2cc(-c3sc(N4CC[C@@H]5CNC[C@@H]5CC4)nc3-c3ccc(C#N)cc3)cnc21 [Example 11, cis-4-(2-{decahydropyrrolo[3,4-d]azepin-6-yl}-5-{1-methyl-1H-pyrazolo[3,4-b]pyridin-5-yl}-1,3-thiazol-4-yl)benzonitrile] |
|  | ≤ 100 | COc1ccc(-n2c(-c3ccc(C#N)c(F)c3)nc(N3CCC(N)CC3)cc2=O)cc1 [Example 32, 4-[4-(4-aminopiperidin-1-yl)-1-(4-methoxyphenyl)-6-oxopyrimidin-2-yl]-2-fluorobenzonitrile] |
| 100 to 1000 | ≤ 100 | N#Cc1ccc(-c2nc(C(=O)N3CCC[C@@H](N)C3)sc2-c2cnn(CC3CC3)c2)cc1 [Example 22, 4-{2-[(3R)-3-aminopiperidine-1-carbonyl]-5-[1-(cyclopropylmethyl)-1H-pyrazol-4-yl]-1,3-thiazol-4-yl}benzonitrile] |
| < 100 | ≤ 100 | Cn1ncc2cc(-c3sc(N4CCC5CNCC5C4)nc3-c3ccc(C#N)cc3)ccc21 (stereo not drawn) [Example 7] |
| < 100 | ≤ 100 | N#Cc1ccc(-c2nc(N3CCC(N)CC3)cc(=O)n2-c2ccc(C3CC3)c(F)c2)cc1F [Example 33, 4-[4-(4-aminopiperidin-1-yl)-1-(4-cyclopropyl-3-fluorophenyl)-6-oxopyrimidin-2-yl]-2-fluorobenzonitrile] |
| < 100 | ≤ 100 | N#Cc1ccc(-c2nc(N3CC[C@@H]4CNC[C@@H]4CC3)sc2-c2cnn(CC(F)(F)F)c2)cc1 [Example 13, 4-(2-{decahydropyrrolo[3,4-d]azepin-6-yl}-5-[1-(2,2,2-trifluoroethyl)-1H-pyrazol-4-yl]-1,3-thiazol-4-yl)benzonitrile] |
| < 100 | ≤ 100 | Cn1cnc2cc(-c3sc(N4CC[C@@H]5CNC[C@@H]5CC4)nc3-c3ccc(C#N)cc3)ccc21 [Example 10, cis-4-(2-{decahydropyrrolo[3,4-d]azepin-6-yl}-5-(1-methyl-1H-1,3-benzodiazol-5-yl)-1,3-thiazol-4-yl)benzonitrile] |
| < 100 | ≤ 100 | N#Cc1ccc(-c2nc(N3CCC(N)CC3)cc(=O)n2-c2ccc(C3CC3)cc2)cc1F [Example 26, 4-[4-(4-Aminopiperidin-1-yl)-1-(4-cyclopropylphenyl)-6-oxopyrimidin-2-yl]-2-fluorobenzonitrile] |
| < 100 | ≤ 100 | N#Cc1ccc(-c2nc(N3CCC(N)CC3)sc2-c2cnn(CC(F)(F)F)c2)cc1 [Example 12, 4-[2-(4-aminopiperidin-1-yl)-5-[1-(2,2,2-trifluoroethyl)-1H-pyrazol-4-yl]-1,3-thiazol-4-yl]benzonitrile] |
| < 100 |  | Cn1ncc2cc(-c3sc(N4CC[C@@H]5CNC[C@@H]5CC4)nc3-c3ccc(C#N)cc3)ccc21 [Example 2, cis-4-(2-{decahydropyrrolo[3,4-d]azepin-6-yl}-5-(1-methyl-1H-indazol-5-yl)-1,3-thiazol-4-yl)benzonitrile] |
